From patent US20060286237A1, “Use of divanillin as a flavouring agent” (priority 2003, published 2006)

How the values were obtained:
[1] = Sensory investigation of the taste impression of divanillin
[2] = as described in JP 07-179853 A2; cited from earlier work
[3] = Taste threshold value determination

COc1cc(C=O)cc(-c2cc(C=O)cc(OC)c2O)c1O [divanillin, 6,6′-dihydroxy-5,5′-dimethoxy-[1,1′-biphenyl]-3,3′-dicarboxaldehyde]
taste impression at higher concentration ([1]; higher concentration values preferred according to JP 07-179853 A2 (0.001 to 5 wt. %)): diminishes in favour of a vanilla-like individual taste
taste impression ([1]; own investigations): pleasant, adherent and rich taste impression of creaminess, milk fattiness, butteriness and sweetness
odour and taste description [2]: odourless and tasteless
taste threshold value [3]: below 1 ppm
